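Protocol summary: plate cells (96-well), add compound at 5 concentrations, incubate 48 h, interpolate endpoints linearly. GI50 marks 50% less growth.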 Active and inactive are the calls of the source. No stated cut-off is given here; in the data, active = GI50 up to about 1.1 µM and inactive = higher.
Experiments:
Assay in all cases: NCI-60 cell line screen, 48 h
HOP-62 = tested on: HOP-62
SR = tested on: SR
T47D = tested on: T47D
MDA-MB-435 = tested on: MDA-MB-435
Hs-578T = tested on: Hs-578T
UACC-257 = tested on: UACC-257
KM12 = tested on: KM12
RXF 393 = tested on: RXF 393
OVCAR-3 = tested on: OVCAR-3
COLO 205 = tested on: COLO 205
SN12C = tested on: SN12C
SK-OV-3 = tested on: SK-OV-3
Malme-3M = tested on: Malme-3M
ACHN = tested on: ACHN
A498 = tested on: A498
OVCAR-4 = tested on: OVCAR-4
HCT-116 = tested on: HCT-116
A549 = tested on: A549
UO-31 = tested on: UO-31
SF-539 = tested on: SF-539

SMILES | GI50 (HOP-62) | GI50 (SR) | GI50 (T47D) | GI50 (MDA-MB-435) | GI50 (Hs-578T) | GI50 (UACC-257) | GI50 (KM12) | GI50 (RXF 393) | GI50 (OVCAR-3) | GI50 (COLO 205) | GI50 (SN12C) | GI50 (SK-OV-3) | GI50 (Malme-3M) | GI50 (ACHN) | GI50 (A498) | GI50 (OVCAR-4) | GI50 (HCT-116) | GI50 (A549) | GI50 (UO-31) | GI50 (SF-539)
NC(=O)C1=NNc2ccccc2C(=O)N1c1ccccc1 | > 100 µM (inactive) | > 100 µM (inactive) | > 100 µM (inactive) | > 100 µM (inactive) | > 100 µM (inactive) | > 100 µM (inactive) | > 100 µM (inactive) | > 100 µM (inactive) | > 100 µM (inactive) | > 100 µM (inactive) | > 100 µM (inactive) | > 100 µM (inactive) | > 100 µM (inactive) | > 100 µM (inactive) | > 100 µM (inactive) | > 100 µM (inactive) | > 100 µM (inactive) | > 100 µM (inactive) | > 100 µM (inactive) | > 100 µM (inactive)
NC(=O)c1cccc([C@@H]2O[C@H](CO)[C@@H](O)[C@H]2O)c1 | 8.3 µM (inactive) | 23.7 µM (inactive) | > 35.8 µM (inactive) | > 49.2 µM (inactive) | 10.5 µM (inactive) | > 100 µM (inactive) | 4.09 µM (inactive) | 8.89 µM (inactive) | 18.9 µM (inactive) | 12.2 µM (inactive) | 40.4 µM (inactive) | 7.21 µM (inactive) | > 100 µM (inactive) | 18.2 µM (inactive) | > 100 µM (inactive) | 5.45 µM (inactive) | 18.5 µM (inactive) | 27.2 µM (inactive) | 5.35 µM (inactive) | 2.24 µM (inactive)
Cc1cc(C)c2c(O)cc(-c3ccc(Cl)cc3)nc2n1 | 44.8 µM (inactive) | 37.6 µM (inactive) | 40 µM (inactive) | 6.79 µM (inactive) | > 100 µM (inactive) | 24.4 µM (inactive) | 16.3 µM (inactive) | 43.7 µM (inactive) | 26.9 µM (inactive) | 24.7 µM (inactive) | > 33 µM (inactive) | 84.9 µM (inactive) | 30.8 µM (inactive) | 48 µM (inactive) | 32.4 µM (inactive) | 21.6 µM (inactive) | 24.2 µM (inactive) | 30.6 µM (inactive) | 41.8 µM (inactive) | > 100 µM (inactive)
CC[C@@]1(OP(=O)(O)O)C(=O)OCc2c1cc1n(c2=O)Cc2cc3ccccc3nc2-1 | 0.253 µM (active) | 0.00274 µM (active) | 0.132 µM (active) | 0.339 µM (active) | > 10 µM (inactive) | 0.287 µM (active) | 0.398 µM (active) | 0.454 µM (active) | 2.73 µM (inactive) | 0.847 µM (active) | 0.0883 µM (active) | 0.342 µM (active) | 1.67 µM (inactive) | 0.0405 µM (active) | 0.0817 µM (active) | 1.76 µM (inactive) | 0.157 µM (active) | 0.143 µM (active) | 0.0836 µM (active) | 0.109 µM (active)
O=C(CCCn1ccnc1[N+](=O)[O-])NCCn1cnc([N+](=O)[O-])n1 | > 100 µM (inactive) | > 100 µM (inactive) | > 100 µM (inactive) | > 100 µM (inactive) | > 100 µM (inactive) | > 100 µM (inactive) | > 100 µM (inactive) | > 100 µM (inactive) | > 100 µM (inactive) | > 100 µM (inactive) | > 100 µM (inactive) | > 100 µM (inactive) | > 100 µM (inactive) | > 100 µM (inactive) | > 100 µM (inactive) | > 100 µM (inactive) | > 100 µM (inactive) | > 100 µM (inactive) | > 100 µM (inactive) | > 100 µM (inactive)
CCOC1OC(C)(C=C(C#N)C#N)CCC1C (stereo not given) | 22.9 µM (inactive) | 22.1 µM (inactive) | 44.2 µM (inactive) | 39.1 µM (inactive) | 36 µM (inactive) | > 71.6 µM (inactive) | > 74 µM (inactive) | 53.6 µM (inactive) | 24.5 µM (inactive) | 36.8 µM (inactive) | 33.7 µM (inactive) | > 100 µM (inactive) | 43.3 µM (inactive) | 37.5 µM (inactive) | 22.4 µM (inactive) | 49.3 µM (inactive) | 29.9 µM (inactive) | 45.5 µM (inactive) | 33.8 µM (inactive) | 23.8 µM (inactive)
COC(=O)NNC(=O)OC.COC(=O)Nc1ccccc1NC(=O)OC.COC(=O)Oc1nn(C(=O)OC)c(=O)c2ccccc12 | > 100 µM (inactive) | > 100 µM (inactive) | > 100 µM (inactive) | > 100 µM (inactive) | > 100 µM (inactive) | > 100 µM (inactive) | > 100 µM (inactive) | > 100 µM (inactive) | > 100 µM (inactive) | > 100 µM (inactive) | > 100 µM (inactive) | > 100 µM (inactive) | > 100 µM (inactive) | > 100 µM (inactive) | 39.1 µM (inactive) | > 100 µM (inactive) | > 100 µM (inactive) | > 100 µM (inactive) | > 100 µM (inactive) | > 100 µM (inactive)
COC12c3ccccc3-c3ccccc3C1[C@@H](C(=O)O)[C@H]2C(=O)O (stereo not given in full) | > 10 µM (inactive) | > 10 µM (inactive) | > 10 µM (inactive) | > 10 µM (inactive) | > 10 µM (inactive) | > 10 µM (inactive) | > 10 µM (inactive) | > 10 µM (inactive) | > 10 µM (inactive) | > 10 µM (inactive) | > 10 µM (inactive) | > 10 µM (inactive) | > 10 µM (inactive) | > 10 µM (inactive) | > 10 µM (inactive) | > 10 µM (inactive) |  |  | > 10 µM (inactive) | > 10 µM (inactive)
CCCCC(/C=C\COC1CCCCO1)=C/C(=O)OCC (stereo not given) | > 100 µM (inactive) | 32.6 µM (inactive) | 55.3 µM (inactive) | > 100 µM (inactive) | 83.9 µM (inactive) | > 100 µM (inactive) | 46.6 µM (inactive) | 60.7 µM (inactive) | 52.7 µM (inactive) | > 100 µM (inactive) | 57.4 µM (inactive) | > 100 µM (inactive) | > 100 µM (inactive) | > 100 µM (inactive) | > 100 µM (inactive) | 61.2 µM (inactive) | 28.6 µM (inactive) | 56.6 µM (inactive) | > 100 µM (inactive) | 14.3 µM (inactive)
CN1CC=C(OP(=O)(NCc2ccccc2)N(CCCl)CCCl)CC1 (stereo not given) | > 100 µM (inactive) | > 100 µM (inactive) | > 100 µM (inactive) | > 100 µM (inactive) | > 100 µM (inactive) | 70.5 µM (inactive) | > 100 µM (inactive) | 40.9 µM (inactive) | > 100 µM (inactive) | > 100 µM (inactive) | > 100 µM (inactive) | > 100 µM (inactive) | > 100 µM (inactive) | > 100 µM (inactive) | > 100 µM (inactive) | > 100 µM (inactive) | > 100 µM (inactive) |  | > 100 µM (inactive) | > 100 µM (inactive)
COc1cc(O)c(C(=O)/C=C/c2ccccc2)c(OC)c1 [FLAVOKAWAIN B] | 12 µM (inactive) | 1.85 µM (inactive) | 6.82 µM (inactive) | 4.71 µM (inactive) | 3.2 µM (inactive) | 10.8 µM (inactive) | 3.52 µM (inactive) | 12.5 µM (inactive) | 7.1 µM (inactive) | 14.5 µM (inactive) | 3.29 µM (inactive) | 11.6 µM (inactive) | 4.61 µM (inactive) | 8.73 µM (inactive) | 4.43 µM (inactive) | 8 µM (inactive) | 5.64 µM (inactive) | 10.3 µM (inactive) | 5.83 µM (inactive) | 3.78 µM (inactive)
Nc1cc2c3c(cccc3c1)NC2=O | 22.1 µM (inactive) | > 100 µM (inactive) | 28 µM (inactive) | > 100 µM (inactive) | > 100 µM (inactive) | > 100 µM (inactive) | > 100 µM (inactive) | > 100 µM (inactive) | > 100 µM (inactive) | > 100 µM (inactive) | 95.1 µM (inactive) | 94 µM (inactive) | > 100 µM (inactive) | 25.1 µM (inactive) | > 100 µM (inactive) | > 100 µM (inactive) | > 100 µM (inactive) | 69.2 µM (inactive) | 21.2 µM (inactive) | 80.7 µM (inactive)
C=C(C)C(CC=C(C)C)CC12CC(CC=C(C)C)C(C)(C)C(CC=C(C)C)(C(=O)C(Cc3ccc(O)c(O)c3)=C1O)C2=O (stereo not given) | > 100 µM (inactive) | > 100 µM (inactive) | > 100 µM (inactive) | > 100 µM (inactive) | > 100 µM (inactive) | > 100 µM (inactive) | > 100 µM (inactive) | > 100 µM (inactive) | > 100 µM (inactive) | > 100 µM (inactive) |  | > 100 µM (inactive) | 57.8 µM (inactive) | > 100 µM (inactive) | 74 µM (inactive) | > 100 µM (inactive) | > 100 µM (inactive) | > 100 µM (inactive) | > 100 µM (inactive) | > 100 µM (inactive)
CC(C)(C)OC(=O)n1cc(C2CNC(=O)C23CCC(=O)N3Cc2ccccc2)c2ccccc21 (stereo not given) | 24.8 µM (inactive) | 32.4 µM (inactive) | 26 µM (inactive) | 20 µM (inactive) | 29.9 µM (inactive) | 27 µM (inactive) | 25.5 µM (inactive) | 21.9 µM (inactive) | 19.2 µM (inactive) | 15.8 µM (inactive) | 16.7 µM (inactive) | 26.2 µM (inactive) | 21.9 µM (inactive) |  | 20 µM (inactive) | 18.7 µM (inactive) | 32.7 µM (inactive) | 18.7 µM (inactive) | 22.1 µM (inactive) | 19.4 µM (inactive)

Source: ChEMBL document CHEMBL1201862, “PubChem BioAssay data set” (2004)
